Measured values: EP0365818A1, “Immunological detection of atrazine and atrazine derivatives” (CIBA-GEIGY AG, priority 1988, dated 1990)

What was measured:
Assay type in all cases: binding, Maus
[1] = tested on: MAb 4063-21-1 (ECACC 8808/2501); test: two-step competitive ELISA (BSA-conjugated hapten on plate), anti-atrazine MAb; details: for % cross-reactivity (b): (Atrazin conc. for 50 % inhibition)/(analogue conc. for 50 % inhibition) x 100; for I 50 ng/ml (a): inhibitor concentration for 50 % inhibition in competitive ELISA
Source text: (§1) Der prozentuale Anteil der Kreuzreaktivität soll im Rahmen dieser Erfindung definitionsgemäss durch die folgende Beziehung wiedergegeben werden: (Atrazin/Hydroxyatrazinkonzentration für 50 % Hemmung/Konzentration der s-Triazin-/Hydroxytriazinanalogen für 50 % Hemmung) x 100.
(§2) Eine 50 %ige Hemmung kann beispielsweise mit Hilfe eines kompetitiven ELISA Assays (vgl. Beispiel 8) bestimmt werden. Diese entspricht dann beispielsweise derjenigen Antigenkonzentration, die zu einer 50 %igen Hemmung der Antikörperbindung an das Träger-gebundene Antigen führt.
(§3) Der Nachweis von Atrazin und Hydroxyatrazin erfolgt mit Hilfe eines zweistufigen, kompetitiven ELISA-Tests.
(§4) BSA-konjugiertes Hapten wird zunächst in einem Natriumcarbonatpuffer (pH 9,6) (0,2 µg/Vertiefung) an Mikrotiterplatten adsorbiert und über Nacht bei einer Temperatur von 4°C inkubiert. Die restlichen freien Bindungsstellen des festen Trägermaterials werden dann durch Zugabe von BSA in Form einer 1 % Lösung blockiert.
(§5) Die Platten werden anschliessend mit PBS gewaschen, das mit 0,1 % (v/v) Polysorbat 20 angereichert ist (PBS-Tween).
(§6) 50 µl der zuvor gereinigten monoklonalen Antikörper (2 µg/ml) oder aber des Ueberstandes der Zellklone (in einer Verdünnung von 1:5 bis 1:22,5) werden a) mit 950 µl einer Standardlösung, die einen steigenden Anteil an Triazin bzw. Triazin-Analogen enthält, b) mit triazinhaltigen Wasserproben oder c) triazinhaltigen Bodenextrakten inkubiert. (Alle Verdünnungen werden in PBS-Tween vorgenommen).
(§7) Nach einer Inkubationszeit von 1 Stunde bei Raumtemperatur werden 200 µl des Gemisches zu jeder Vertiefung der Mikrotiterplatte zugegeben und der gesamte Ansatz wird für eine weitere Stunde inkubiert.
(§8) Die Vertiefungen werden anschliessend 5 x gewaschen und mit 100 µl/Vertiefung Ziegen-anti-Maus IgG Antikörper der konjugiert an alkalische Phosphatase vorliegt (Verdünnung 1:1500) beschickt und für einen Zeitraum von 1,5 Stunden inkubiert.
(§9) Nach erneutem Waschen werden 150 µl/Vertiefung des in 1 mg/ml Diethanolaminpuffer (1 mM, pH 9,8) gelösten Substrates p-Nitrophenylphosphat zu den Vertiefungen zugegeben.
(§10) Ein Farbumschlag, der proportional ist zur Menge an Antikörper, der mit dem an die Festphase gebundenen Antigen reagiert hat, wird bei einer Wellenlänge von 405 nm aufgezeichnet. Die Verdünnungen der einzelnen Proben werden so gewählt, dass man ohne Zugabe eines Inhibitors (Bo) Absorptionswerte in einem Bereich zwischen 0.3 und 0.5 erhält. Für die Kontrollen (ohne Antikörper und mit nicht nachweisbaren Mengen an Antigen) ergeben sich Werte von R ≦ 0.005. Alle Proben werden in dreifacher Ausfertigung bestimmt.
(§11) Zur Ermittlung der in einer Probe enthaltenen Menge an Atrazin/Hydroxyatrazin wird zunächst eine Eichkurve erstellt (Abb. 1), wobei B/Bo x 100 gegen die Konzentration an Inhibitor aufgetragen wird. (Bo bedeutet Absorptionsfähigkeit gemessen ohne Zugabe eines Triazininhibitors zum Antikörper, und B Absorptionsfähigkeit bei Zugabe verschieden konzentrierter Triazin-Inhibitoren) Der I₅₀-Wert gibt diejenige Konzentration des Antigens an, bei der die Antikörperbindung an die Festphase zu 50 % gehemmt wird. Der I₅₀-Wert wird mit Hilfe eines auf die vorliegenden Verhältnisse speziell angepassten ENZFITTER (Leatherbarrow, Elsevier-Biosoft)Kurvenkalkulationsprogramms bestimmt, basierend auf einer 4 Parameter umfassenden logistischen Kurve (Raab GM, 1983). Auch die quantitative Atrazin bzw. Hydroxyatrazinbestimmung in Boden- oder Wasserproben im Rahmen des ELISA wird mit Hilfe des ENZFITTER-Programms durchgeführt, wobei die Anpassung der Kurve auf Standards basiert, die auf jeder Mikrotiterplatte mitlaufen.

[2] = tested on: Mab 4009-77-20 (ECACC 8808/2502); test: two-step competitive ELISA (BSA-conjugated hapten on plate), anti-hydroxyatrazine MAb; details: for % cross-reactivity (c): (Hydroxyatrazin conc. for 50 % inhibition)/(analogue conc. for 50 % inhibition) x 100; for I 50 ng/ml (a): inhibitor concentration for 50 % inhibition in competitive ELISA
Source text: as §1, §2, §3, §4, §5, §6, §7, §8, §9, §10, §11

[3] = tested on: MAb 4009-85-3 (ECACC 8808/2503); test: as above; details: for % cross-reactivity (c): (Hydroxyatrazin conc. for 50 % inhibition)/(analogue conc. for 50 % inhibition) x 100; for I 50 ng/ml (a): inhibitor concentration for 50 % inhibition in competitive ELISA
Source text: as §1, §2, §3, §4, §5, §6, §7, §8, §9, §10, §11

Structure (SMILES) | % cross-reactivity (b) [1] | I 50 ng/ml (a) [1] | % cross-reactivity (c) [2] | I 50 ng/ml (a) [2] | % cross-reactivity (c) [3] | I 50 ng/ml (a) [3] | I 50 ng/ml (a) ([2]; listed as Hydroxyatrazin) [ng/mL] | I 50 ng/ml (a) ([3]; listed as Hydroxyatrazin) [ng/mL]
CCNc1nc(NC(C)C)nc(SC)n1 [Ametryn] | 5,0% | 9 ng/mL | <0,05% | >1000 ng/mL | <0,1% | >1000 ng/mL | – | –
CCNc1nc(NC(C)C)nc(OC)n1 [Atraton] | 6,4% | 7 ng/mL | <0,05% | >1000 ng/mL | <0,1% | >1000 ng/mL | – | –
CCNc1nc(Cl)nc(NC(C)C)n1 [Atrazin] | 100,0% | – | <0,05% | >1000 ng/mL | <0,1% | >1000 ng/mL | – | –
CNc1nc(NC(C)C)nc(SC)n1 [Desmetryn] | 0,5% | 90 ng/mL | – | – | – | – | – | –
CCNc1nc(O)nc(NC(C)C)n1 [OH-Atrazin, Hydroxyatrazin] | 2,1% | 21 ng/mL | 100,0% | 0,5 ng/ml | 100,0% | 0,95 ng/ml | 0.5 | 0.95
CNc1nc(O)nc(NC(C)C)n1 [OH-Desmetryn, Hydroxydesmetryn] | 0,1% | 360 ng/mL | 71,4% | 0,7 ng/ml | 11,9% | 8 ng/mL | – | –
CC(C)Nc1nc(O)nc(NC(C)C)n1 [OH-Propazin, Hydroxypropazin] | 8,2% | 5,5 ng/ml | 83,3% | 0,6 ng/ml | 100,0% | 0,95 ng/ml | – | –
CCNc1nc(O)nc(NCC)n1 [OH-Simazin, Hydroxysimazin] | 0,3% | 180 ng/mL | 41,7% | 1,2 ng/ml | 1,5% | 65 ng/mL | – | –
CCNc1nc(O)nc(NC(C)(C)C)n1 [OH-Terbuthylazin, Hydroxyterbuthylazin] | 5,6% | 8 ng/mL | 15,2% | 3,3 ng/ml | 5,0% | 19 ng/mL | – | –
COc1nc(NC(C)C)nc(NC(C)C)n1 [Prometon] | 75,0% | 0,6 ng/ml | – | – | – | – | – | –
CSc1nc(NC(C)C)nc(NC(C)C)n1 [Prometryn] | 56,3% | 0,8 ng/ml | – | – | – | – | – | –
CC(C)Nc1nc(Cl)nc(NC(C)C)n1 [Propazin] | 90,0% | 0,5 ng/ml | <0,05% | >1000 ng/mL | <0,1% | >1000 ng/mL | – | –
CCNc1nc(Cl)nc(NCC)n1 [Simazin] | 2,5% | 18 ng/mL | – | – | – | – | – | –
CCNc1nc(NCC)nc(SC)n1 [Simetryn] | 1,7% | 27 ng/mL | – | – | – | – | – | –
CCNc1nc(Cl)nc(NC(C)(C)C)n1 [Terbuthylazin] | 5,0% | 9 ng/mL | – | – | – | – | – | –
CCNc1nc(Cl)nc(N(CC)CC)n1 [Trietazin] | 11,3% | 4 ng/mL | – | – | – | – | – | –
